Measurements from article PMC7997574, “Lead Optimization of Benzoxazolone Carboxamides as Orally Bioavailable and CNS Penetrant Acid Ceramidase Inhibitors” (Journal of Medicinal Chemistry, 2020).

Experiments:
[1] = molecular target: T1, human N-acylethanolamine acid amidase (hNAAA) (Homo sapiens, UniProt Q02083); assay: Fluorogenic hNAAA assay; format: biochemical
T1 construct: expressed in transfected cells
T1 sequence (Q02083 29-359): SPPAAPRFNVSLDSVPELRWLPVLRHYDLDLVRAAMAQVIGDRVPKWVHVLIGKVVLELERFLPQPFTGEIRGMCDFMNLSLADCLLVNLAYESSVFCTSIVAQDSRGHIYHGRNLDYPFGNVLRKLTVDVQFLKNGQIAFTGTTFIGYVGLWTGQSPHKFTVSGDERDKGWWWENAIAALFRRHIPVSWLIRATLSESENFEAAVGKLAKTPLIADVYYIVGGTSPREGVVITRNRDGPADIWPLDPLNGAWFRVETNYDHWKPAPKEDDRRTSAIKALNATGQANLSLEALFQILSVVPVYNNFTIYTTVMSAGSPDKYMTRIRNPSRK
Description: HEK-293 cells stably transfected with the hNAAA coding sequence cloned from a human spleen cDNA library (catalog no. 639124, Clontech, Mountain View, CA, USA) were used as the enzyme source. Cells were grown in Dulbecco’s modified Eagle medium (DMEM) containing 10% FBS, 1% glutamine, 1 mM sodium pyruvate, and 500 μg mL^–1 G418. Cells were harvested, and pellets were stored at −80 °C until lysosomal-enriched lysate preparation. Cells were suspended in 20 mM Tris HCl (pH 7.4) with 0.32 M sucrose, sonicated, and centrifuged at 800 × g for 30 min at 4 °C. Supernatants were then ultracentrifuged at 12000 × g for 30 min at 4 °C. […] The suspension was finally ultracentrifuged at 105000 × g for 1 h at 4 °C, supernatants were collected, protein concentration was measured, and samples were aliquoted and stored at −80 °C until use.
The assay was run in 96-well microplates (Black OptiPlate-96F; PerkinElmer, Massachusetts, USA) in a total reaction volume of 200 μL. hNAAA protein preparation (4.0 μg) was preincubated for 30 min with various concentrations of test compounds or vehicle control (DMSO 5%) in 100 mM citrate/phosphate buffer (pH 4.5) containing 3.0 mM DTT, 0.1% NP40 0.1%, 0.05% BSA, 150 mM NaCl. […] Fluorescence was measured with an EnVision 2014 Multilabel Reader (PerkinElmer, Massachusetts, USA) using an excitation wavelength of 355 nm and emission of 460 nm. […]

[2] = molecular target: T2, monoacylglycerol lipase (MAGL) (Homo sapiens, UniProt Q99685); assay: In vitro hMAGL colorimetric assay; format: biochemical; settings: 1 and 10 μM
T2 construct: purchased Cayman Scientific item; 705192
T2 sequence (Q99685 1-303): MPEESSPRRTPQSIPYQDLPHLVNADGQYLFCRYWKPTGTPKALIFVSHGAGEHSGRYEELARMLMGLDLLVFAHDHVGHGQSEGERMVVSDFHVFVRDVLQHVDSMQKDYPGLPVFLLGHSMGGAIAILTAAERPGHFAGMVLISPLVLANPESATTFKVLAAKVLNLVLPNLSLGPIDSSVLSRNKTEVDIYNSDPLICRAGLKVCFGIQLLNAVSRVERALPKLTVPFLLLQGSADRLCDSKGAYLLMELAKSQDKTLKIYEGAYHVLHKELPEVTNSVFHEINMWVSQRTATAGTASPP
Description: The colorimetric assay to measure hMAGL activity was performed using an assay kit provided by Cayman Scientific (item. 705192), according to the manufacturer’s instructions. Briefly, in vitro activity was measured in 96-well plates, and DMSO was used as solvent. 10 μL of DMSO (100% initial activity wells: 100% IA) or compounds at two concentrations (1 and 10 μM) were preincubated for 5 min at rt with 150 μL of diluted assay buffer (10 mM Tris HCl, pH 7.2, containing 1 mM EDTA) containing hMAGL. In blank wells, 160 μL of the diluted assay buffer and 10 μL of DMSO were added. The reactions were initiated by adding 10 μL of MAGL substrate to all the wells, and plates were incubated for 10 min at rt. Absorbance values were measured at 405 nm, and percent inhibition was calculated by the following method: 100 – (Inhibitor/100% IA) × 100. The reported percentages of inhibition are the mean of at least three independent experiments performed in three technical replicates.

GluSph (d18:1) = assay: Brain GluSph levels in 4L;C* mice (neuropathic Gaucher's disease model); format: in vivo, mouse
Description: 4L;C* mice (C57BL/6 J/129SvEV) were randomly assigned to three treatment groups (N = 4–8 with mixed males and females) and dosed once a day i.p. with 90 or 30 mg kg^–1 of 22m or vehicle. Treatment started at 5 days of age for a duration of 14 days. The application volume was set to 10 μL per gram of body weight, and dosage was adjusted accordingly. Animals of all groups were sacrificed 1 h after the last dose, and the brain tissues and plasma were collected. The left brain containing cortex, cerebella, thalamus, and brainstem was analyzed for SphL levels by MS. Data were analyzed using the Student t test. The right brain containing cortex, cerebella, thalamus, and brainstem and plasma were analyzed for drug levels of 22m. All mice were housed under pathogen-free conditions in the animal facility, and animal experiment was performed according to the IACUC approved protocol (2018-0056) at Cincinnati Children’s Hospital Research Foundation. Wild Type (WT) (GALC+/+) and Twitcher (Twi) (GALC–/−) mice were genotyped by PCR as previously described.[58] […] The left brain containing cortex, cerebella, thalamus, and brainstem was analyzed for SphL levels by MS. Data were analyzed using the Student t test. The right brain containing cortex, cerebella, thalamus, and brainstem and plasma were analyzed for drug levels of 22m. […]

CC(C)CNC(=O)n1c(=O)oc2cc(C3CCN(C)CC3)ccc21 [22m, N-Isobutyl-6-(1-methyl-4-piperidyl)-2-oxo-1,3-benzoxazole-3-carboxamide]
IC50 [1]: 8 µM
effect on MAGL [2]: no effect
effect on brain GluSph (d18:1) (GluSph (d18:1); 30 and 90 mg kg^–1 i.p. once a day for 14 days): significantly reduces GluSph (d18:1) in the brain of 4L;C* mice in a dose-dependent manner
reduction of the GluSph levels relative to control (GluSph (d18:1); brain, 90 mg kg^–1 i.p. once a day for 14 days): 54%
